Our source for the IC50 values is patent publication US20050197338A1, “Substituted pyrazole urea compounds for the treatment of inflammation” (priority 2003, published 2005).

Structures can show the parent of a compound that is named as a salt. Where two headings read alike, the source gives them in different places.

For this test, the target named is T1, human IKK-2 (rhIKK-2 homodimer) (Homo sapiens, UniProt O14920).
T1 construct: FLAG (DYKDDDDKD) (C); made in house; host or cells: insect cells (baculovirus, pFastBac)
T1 sequence (O14920 1-756): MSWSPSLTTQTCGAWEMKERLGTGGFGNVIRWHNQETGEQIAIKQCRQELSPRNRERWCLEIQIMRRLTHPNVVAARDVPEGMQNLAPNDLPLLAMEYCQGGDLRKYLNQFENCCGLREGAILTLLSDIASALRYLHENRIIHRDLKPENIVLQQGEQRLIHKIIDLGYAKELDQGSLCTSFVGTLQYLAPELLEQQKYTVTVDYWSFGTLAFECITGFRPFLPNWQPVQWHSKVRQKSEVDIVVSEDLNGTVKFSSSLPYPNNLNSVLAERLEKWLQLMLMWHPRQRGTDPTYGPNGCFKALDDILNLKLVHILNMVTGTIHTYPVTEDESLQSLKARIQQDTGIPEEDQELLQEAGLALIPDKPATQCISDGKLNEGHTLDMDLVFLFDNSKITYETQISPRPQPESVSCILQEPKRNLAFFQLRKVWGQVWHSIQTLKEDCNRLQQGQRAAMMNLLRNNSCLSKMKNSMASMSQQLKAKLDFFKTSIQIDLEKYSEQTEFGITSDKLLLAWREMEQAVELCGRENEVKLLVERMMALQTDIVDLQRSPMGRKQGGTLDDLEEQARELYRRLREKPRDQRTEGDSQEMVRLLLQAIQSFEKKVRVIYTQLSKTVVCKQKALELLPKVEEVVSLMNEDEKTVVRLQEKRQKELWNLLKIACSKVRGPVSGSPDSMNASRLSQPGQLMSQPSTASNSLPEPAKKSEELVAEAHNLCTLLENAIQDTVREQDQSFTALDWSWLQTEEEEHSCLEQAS
Description: IKK-2 Resin Enzyme Assay (Human IKK-2 Enzyme Assay). Type of test: biochemical. The procedure, abridged: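 C-terminally FLAG-tagged human IKK-2 homodimer, baculovirus-expressed in insect cells and anti-FLAG purified. Reaction mix: 5 μM biotinylated IκBα peptide (Ser32/Ser36 region), 1 μM ATP with [γ-33P]ATP, 2 mM MgCl2, 2 mM MnCl2, 10 mM NaF, 1 mM DTT, 25 mM HEPES pH 7.6. Incubated 30 min at 25 °C; IC50 derived.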

[1] abbreviates: human IKK-2, resin enzyme assay, read-out: IC50 (μM) hIKK-2.

In general, IC50 refers to the midpoint of a concentration-inhibition curve. Turning to `CC(=O)COc1cccc(-c2ccc(-n3cc(NC(N)=O)c(C(N)=O)n3)cc2)c1` [Example 253, 4-[(aminocarbonyl)amino]-1-[3′-(2-oxopropoxy)-1,1′-biphenyl-4-yl]-1H-pyrazole-3-carboxamide], under setting [1], the IC50 is 1.01 µM.
The same measure, in the same setting: in the case of `NC(=O)Nc1cn(-c2ccc(-c3ccc(C(=O)NCc4ccccc4F)c(F)c3)cc2)nc1C(N)=O` [Example 157, 4-[(aminocarbonyl)amino]-1-(3′-fluoro-4′-{[(2-fluorobenzyl)amino]carbonyl}-1,1′-biphenyl-4-yl)-1H-pyrazole-3-carboxamide] it was 8.08 µM; in that of `COc1ccc(-c2cccc(-n3cc(NC(N)=O)c(C(N)=O)n3)c2)cc1OC` [Example 56, 4-[(aminocarbonyl)amino]-1-(3,4′-dimethoxy-1,1′-biphenyl-3-yl)-1H-pyrazole-3-carboxamide], 2.16 µM.
Same read-out and setting: in the case of `Cc1cc(-n2cc(NC(N)=O)c(C(N)=O)n2)ccc1-c1ccc(F)cc1O` [Example 241, 1-(4′-Fluoro-2′-hydroxy-2-methyl-biphenyl-4-yl)-4-ureido-1H-pyrazole-3-carboxylic acid amide] it was 1.68 µM; in that of `CNC(=O)Nc1cn(-c2ccc(I)cc2)nc1C(N)=O` [Example 17, 1-(4-iodophenyl)-4-{[(methylamino)carbonyl]amino}-1H-pyrazole-3-carboxamide], 1.72 µM.
Still for that read-out and setting: in the case of `NC(=O)Nc1cn(-c2cccc(-c3ccc4[nH]ccc4c3)c2)nc1C(N)=O` [Example 65, 4-[(aminocarbonyl)amino]-1-[3-(1H-indol-5-yl)phenyl]-1H-pyrazole-3-carboxamide] it was 1.8 µM.
`Cc1cc(F)ccc1-c1cccc(-n2cc(NC(N)=O)c(C(N)=O)n2)c1` [Example 345, 4-[(aminocarbonyl)amino]-1-(4′-fluoro-2′-methyl-1,1′-biphenyl-3-yl)-1H-pyrazole-3-carboxamide]: the IC50 under setting [1] is > 20 µM.
Take `CC(=O)Nc1cccc(-c2cccc(-n3cc(NC(N)=O)c(C(N)=O)n3)c2)c1` [Example 76, 1-[3′-(acetylamino)-1,1′-biphenyl-3-yl]-4-[(aminocarbonyl)amino]-1H-pyrazole-3-carboxamide]: the IC50 under setting [1] was found to be 0.9 µM.
On to `CN(Cc1ccc(F)cc1)C(=O)c1ccc(-c2ccc(-n3cc(NC(N)=O)c(C(N)=O)n3)cc2)cc1F` [Example 158, 4-[(aminocarbonyl)amino]-1-(3′-fluoro-4′-{[(4-fluorobenzyl)(methyl)amino]carbonyl}-1,1′-biphenyl-4-yl)-1H-pyrazole-3-carboxamide], for which, under setting [1], the 50% inhibitory concentration (IC50) came out at 4.04 µM.
On the same count and under the same terms, the figure for `NC(=O)Nc1cn(-c2ccc(F)cc2)nc1C(N)=O` [Example 212, 4-[(aminocarbonyl)amino]-1-(4-fluorophenyl)-1H-pyrazole-3-carboxamide] is 0.844 µM; for `Cc1cc(-n2cc(NC(N)=O)c(C(N)=O)n2)ccn1` [Example 322, 4-[(aminocarbonyl)amino]-1-(2-methylpyridin-4-yl)-1H-pyrazole-3-carboxamide] it is 2.19 µM.
As for `NC(=O)Nc1cn(-c2ccc(-c3ccccc3O)c(Cl)c2)nc1C(N)=O` [Example 223, 4-[(aminocarbonyl)amino]-1-(2-chloro-2′-hydroxy-1,1′-biphenyl-4-yl)-1H-pyrazole-3-carboxamide], under setting [1], the IC50 was found to be 1.15 µM.
On the same count and under the same terms, in the case of `CC(C)(C)c1ccc(-c2ccc(-n3cc(C(N)=O)c(NC(N)=O)n3)cc2)cc1` [Example 126] it was > 20 µM; in that of `NC(=O)Nc1cn(-c2cccc(-c3cccc(O)c3)c2)nc1C(N)=O` [Example 72, 4-[(aminocarbonyl)amino]-1-(3′-hydroxy-1,1′-biphenyl-3-yl)-1H-pyrazole-3-carboxamide], 0.44 µM.
On the same count and under the same terms, the figure for `N#CCCNC(=O)c1cccc(-c2cccc(-n3cc(NC(N)=O)c(C(N)=O)n3)c2)c1` [Example 82, 4-[(aminocarbonyl)amino]-1-(3′-{[(2-cyanoethyl)amino]carbonyl}-1,1′-biphenyl-3-yl)-1H-pyrazole-3-carboxamide] is 1.19 µM; for `NC(=O)Nc1cn(-c2cccc(-c3ccccc3OCc3ccccc3)c2)nc1C(N)=O` [Example 86, 4-[(aminocarbonyl)amino]-1-[2′-(benzyloxy)-1,1′-biphenyl-3-yl]-1H-pyrazole-3-carboxamide] it is 5.91 µM; for `COc1ccc(Cc2cccc(-n3cc(NC(N)=O)c(C(N)=O)n3)c2)cc1OC` [Example 11, 4-[(aminocarbonyl)amino]-1-[3-(3,4-dimethoxybenzyl)phenyl]-1H-pyrazole-3-carboxamide] it is 6.36 µM.
In the case of `COc1cccc(-c2ccc(-n3cc(NC(N)=O)c(C(N)=O)n3)cc2)c1` [Example 107, 4-[(aminocarbonyl)amino]-1-(3′-methoxy-1,1′-biphenyl-4-yl)-1H-pyrazole-3-carboxamide], under setting [1], the IC50 came to 0.651 µM.
In the case of `NC(=O)Nc1cn(-c2ccc(-c3cc(F)ccc3OCC(=O)N3CCOCC3)cc2)nc1C(N)=O` [Example 161, 4-[(aminocarbonyl)amino]-1-[5′-fluoro-2′-(2-morpholin-4-yl-2-oxoethoxy)-1,1′-biphenyl-4-yl]-1H-pyrazole-3-carboxamide], under setting [1], the IC50 is 1.36 µM.
`NC(=O)Nc1cn(-c2cccc(-c3ccc(C(=O)N4CCC(=O)CC4)cc3)c2)nc1C(N)=O` [Example 90, 4-[(aminocarbonyl)amino]-1-{4′-[(4-oxopiperidin-1-yl)carbonyl]-1,1′-biphenyl-3-yl}-1H-pyrazole-3-carboxamide]: the IC50 amounted to 2.81 µM.
Take `NC(=O)Nc1cn(-c2ccc(Sc3cccc(F)c3)cc2)nc1C(N)=O` [Example 197, 1-(1-(4-(3-fluorophenylthio)phenyl)-3-carbamoyl-1H-pyrazol-4-yl)urea]: under setting [1], the IC50 worked out at 0.561 µM.
For the compound `N#CCOc1ccccc1-c1ccc(-n2cc(NC(N)=O)c(C(N)=O)n2)cc1C(F)(F)F` [Example 238, 4-[(aminocarbonyl)amino]-1-[2′-(cyanomethoxy)-2-(trifluoromethyl)-1,1′-biphenyl-4-yl]-1H-pyrazole-3-carboxamide], under setting [1], the IC50 turned out to be 1.11 µM.
Same read-out and setting: in the case of `NC(=O)Nc1cn(-c2ccc(I)c(Cl)c2)nc1C(N)=O` [Example 6, 4-[(aminocarbonyl)amino]-1-(3-chloro-4-iodophenyl)-1H-pyrazole-3-carboxamide] it was 0.546 µM; in that of `COc1cc(-c2cccc(-n3cc(NC(N)=O)c(C(N)=O)n3)c2)c(Cl)cn1` [Example 14, trifluoroacetate], 8.95 µM; in that of `CCCCCc1ccc(-c2ccc(-n3cc(C(N)=O)c(NC(N)=O)n3)cc2)cc1` [Example 138], > 20 µM.
As to `CS(=O)(=O)Nc1ccc(-c2cccc(-n3cc(NC(N)=O)c(C(N)=O)n3)c2)cc1` [Example 59, 4-[(aminocarbonyl)amino]-1-{4′-[(methylsulfonyl)amino]-1,1′-biphenyl-3-yl}-1H-pyrazole-3-carboxamide], under setting [1], the IC50 turned out to be 1.64 µM.
Same read-out and setting: in the case of `NC(=O)Nc1cn(-c2ccc(Sc3ccc(F)cc3)c(Cl)c2)nc1C(N)=O` [Example 221, 4-[(aminocarbonyl)amino]-1-{3-chloro-4-[(4-fluorophenyl)thio]phenyl}-1H-pyrazole-3-carboxamide] it was 2.6 µM; in that of `NC(=O)Nc1cn(-c2ccc(-c3cccnc3)cc2)nc1C(N)=O` [Example 21, 4-[(aminocarbonyl)amino]-1-(4-pyridin-3-ylphenyl)-1H-pyrazole-3-carboxamide], 2.86 µM.
In the case of `NC(=O)COc1ccc(F)cc1-c1ccc(-n2cc(NC(N)=O)c(C(N)=O)n2)cc1` [Example 252, 4-[(aminocarbonyl)amino]-1-[2′-(2-amino-2-oxoethoxy)-5′-fluoro-1,1′-biphenyl-4-yl]-1H-pyrazole-3-carboxamide], the IC50 under setting [1] was determined as 0.492 µM.
Turning to `N#CCOc1cccc(-c2ccc(-n3cc(NC(N)=O)c(C(N)=O)n3)c(F)c2)c1` [Example 179, 4-[(aminocarbonyl)amino]-1-[3′-(cyanomethoxy)-3-fluoro-1,1′-biphenyl-4-yl]-1H-pyrazole-3-carboxamide], the IC50 under setting [1] worked out at 0.51 µM.
On the same count and under the same terms, the figure for `CC(C)(C)c1ccc(-c2cccc(-n3cc(NC(N)=O)c(C(N)=O)n3)c2)cc1` [Example 362, 4-[(aminocarbonyl)amino]-1-(4′-tert-butyl-1,1′-biphenyl-3-yl)-1H-pyrazole-3-carboxamide] is > 20 µM.
On the same count and under the same terms, the figure for `CCc1cc(Br)ccc1N/N=C(\C#N)C(N)=O` [Example 277, (2E)-2-[(4-bromo-2-ethylphenyl)hydrazono]-2-cyanoacetamide] is 7.59 µM; for `CC(C)c1cccc(-c2cccc(-n3cc(NC(N)=O)c(C(N)=O)n3)c2)c1` [Example 352, 4-[(aminocarbonyl)amino]-1-(3′-isopropyl-1,1′-biphenyl-3-yl)-1H-pyrazole-3-carboxamide] it is > 20 µM.
